In the NIST ThermoML archive (doi:10.1016/j.jct.2016.03.021):

Test: wn = mass fraction of the nth substance listed
Conditions: Liquid; for mass density: Vibrating tube method

NCCO [2-aminoethan-1-ol] + O
viscosity [mPa·s]
Conditions	w1 = 0.1	w1 = 0.1001	w1 = 0.2	w1 = 0.3	w1 = 0.3005	w1 = 0.4	w1 = 0.4001
293.15 K, 93 kPa, Concentric cylinders viscometry	1.409	–	1.982	2.967	–	4.326	–
293.15 K, 100 kPa, Falling or rolling sphere viscometry	–	1.435	1.968	–	2.913	–	4.315
293.15 K, 101 kPa, Falling or rolling sphere viscometry	1.435	–	1.968	2.913	–	4.315	–
293.15 K, 5000 kPa, Falling or rolling sphere viscometry	–	1.435	1.97	–	2.921	–	4.34
293.15 K, 10000 kPa, Falling or rolling sphere viscometry	–	1.434	1.969	–	2.93	–	4.368
293.15 K, 20000 kPa, Falling or rolling sphere viscometry	–	1.43	1.973	–	2.952	–	4.426
293.15 K, 30000 kPa, Falling or rolling sphere viscometry	–	1.43	1.977	–	2.972	–	4.475
293.15 K, 40000 kPa, Falling or rolling sphere viscometry	–	1.429	1.983	–	2.99	–	4.528
293.15 K, 60000 kPa, Falling or rolling sphere viscometry	–	1.431	1.994	–	3.032	–	4.628
293.15 K, 80000 kPa, Falling or rolling sphere viscometry	–	1.434	2.009	–	3.076	–	4.739
293.15 K, 100000 kPa, Falling or rolling sphere viscometry	–	1.432	2.026	–	3.12	–	4.845
293.15 K, 120000 kPa, Falling or rolling sphere viscometry	–	1.443	2.046	–	3.162	–	4.954
313.15 K, 93 kPa, Concentric cylinders viscometry	0.8932	–	1.198	1.675	–	2.284	–
313.15 K, 100 kPa, Falling or rolling sphere viscometry	–	0.891	1.173	–	1.638	–	2.284
313.15 K, 101 kPa, Falling or rolling sphere viscometry	0.891	–	1.173	1.638	–	2.284	–
313.15 K, 5000 kPa, Falling or rolling sphere viscometry	–	0.892	1.178	–	1.642	–	2.306
313.15 K, 10000 kPa, Falling or rolling sphere viscometry	–	0.892	1.182	–	1.649	–	2.319
313.15 K, 20000 kPa, Falling or rolling sphere viscometry	–	0.896	1.19	–	1.668	–	2.352
313.15 K, 30000 kPa, Falling or rolling sphere viscometry	–	0.899	1.197	–	1.686	–	2.384
313.15 K, 40000 kPa, Falling or rolling sphere viscometry	–	0.902	1.205	–	1.702	–	2.416
313.15 K, 60000 kPa, Falling or rolling sphere viscometry	–	0.91	1.219	–	1.735	–	2.479
313.15 K, 80000 kPa, Falling or rolling sphere viscometry	–	0.918	1.232	–	1.77	–	2.544
313.15 K, 100000 kPa, Falling or rolling sphere viscometry	–	0.927	1.249	–	1.804	–	2.609
313.15 K, 120000 kPa, Falling or rolling sphere viscometry	–	0.936	1.263	–	1.846	–	2.675
333.15 K, 93 kPa, Concentric cylinders viscometry	0.6263	–	0.7832	1.084	–	1.405	–
333.15 K, 100 kPa, Falling or rolling sphere viscometry	–	0.615	0.78	–	1.061	–	1.389
333.15 K, 101 kPa, Falling or rolling sphere viscometry	0.615	–	0.78	1.061	–	1.389	–
333.15 K, 5000 kPa, Falling or rolling sphere viscometry	–	0.614	0.788	–	1.067	–	1.401
333.15 K, 10000 kPa, Falling or rolling sphere viscometry	–	0.617	0.792	–	1.075	–	1.41
333.15 K, 20000 kPa, Falling or rolling sphere viscometry	–	0.622	0.799	–	1.089	–	1.434
333.15 K, 30000 kPa, Falling or rolling sphere viscometry	–	0.625	0.807	–	1.103	–	1.453

mass density [kg/m3]
Conditions	w1 = 0.1001	w1 = 0.2	w1 = 0.3005	w1 = 0.4
293.15 K, 100 kPa	1002.5	1006.9	1012.3	1018.1
293.15 K, 500 kPa	1002.7	1007	1012.5	1018.1
293.15 K, 1000 kPa	1002.9	1007.2	1012.7	1018.3
293.15 K, 2000 kPa	1003.3	1007.6	1013	1018.6
293.15 K, 5000 kPa	1004.6	1008.7	1014.1	1019.6
293.15 K, 10000 kPa	1006.7	1010.7	1016	1021.4
293.15 K, 15000 kPa	1008.8	1012.6	1017.7	1023.1
293.15 K, 20000 kPa	1010.9	1014.5	1019.6	1024.8
293.15 K, 30000 kPa	1015.1	1018.4	1023.2	1028.3
293.15 K, 40000 kPa	1019.1	1022.1	1026.6	1031.6
293.15 K, 50000 kPa	1023	1025.8	1030	1034.8
293.15 K, 60000 kPa	1026.9	1029.4	1033.5	1038.1
293.15 K, 70000 kPa	1030.8	1033	1036.9	1041.4
293.15 K, 80000 kPa	1034.5	1036.2	1040	1044.3
293.15 K, 90000 kPa	1038.2	1039.7	1043.3	1047.5
293.15 K, 100000 kPa	1041.8	1043.2	1046.6	1050.4
293.15 K, 110000 kPa	1045.2	1046.4	1049.6	1053.3
293.15 K, 120000 kPa	1048.8	1049.6	1052.6	1056.3
313.15 K, 100 kPa	995.9	999.1	1003.2	1007.5
313.15 K, 500 kPa	996	999.2	1003.4	1007.7
313.15 K, 1000 kPa	996.3	999.4	1003.6	1007.9
313.15 K, 2000 kPa	996.6	999.8	1004	1008.3
313.15 K, 5000 kPa	997.9	1001	1005.1	1009.3
313.15 K, 10000 kPa	1000	1002.9	1007	1011.2
313.15 K, 15000 kPa	1002	1004.8	1008.8	1012.9
313.15 K, 20000 kPa	1004	1006.7	1010.6	1014.7
313.15 K, 30000 kPa	1008.1	1010.5	1014.3	1018.2
313.15 K, 40000 kPa	1012.1	1014.3	1017.9	1021.7
313.15 K, 50000 kPa	1015.9	1017.9	1021.3	1025.1
313.15 K, 60000 kPa	1019.8	1021.5	1024.8	1028.4
313.15 K, 70000 kPa	1023.4	1025	1028.2	1031.7
313.15 K, 80000 kPa	1027	1028.5	1031.4	1034.8
313.15 K, 90000 kPa	1030.6	1031.8	1034.5	1037.8
313.15 K, 100000 kPa	1034.2	1035.1	1037.9	1041.1
313.15 K, 110000 kPa	1037.6	1038.4	1041	1044
313.15 K, 120000 kPa	1041.1	1041.8	1044.1	1047
333.15 K, 100 kPa	986.3	988.8	992	995.3
333.15 K, 500 kPa	986.5	988.9	992.3	995.6
333.15 K, 1000 kPa	986.7	989.1	992.4	995.8
333.15 K, 2000 kPa	987.1	989.5	992.8	996.2
333.15 K, 5000 kPa	988.4	990.7	994	997.3
333.15 K, 10000 kPa	990.5	992.7	996	999.3
333.15 K, 15000 kPa	992.6	994.7	997.9	1001.1
333.15 K, 20000 kPa	994.6	996.6	999.7	1003
333.15 K, 30000 kPa	998.6	1000.5	–	–
